Source: patent US7108865B2, “Controlled-release dosage forms of azithromycin” (Pfizer Inc, priority 1994, dated 2006)
Read-outs that look alike come from different tables or passages of the source.

Tests used:
[1] = Serum azithromycin pharmacokinetics after 2 g oral capsule dose, single vs divided (Example 1); format: in vivo; conditions: male, human, mean; for AUC(0-t): read-out: AUC0–144
Method: In a double-blind, randomized, placebo-controlled parallel group study, healthy male subjects were divided into three groups. Group A received a single 2 g azithromycin dose as eight 250 mg azithromycin capsules (“bolus dosing” group). Group B received the same total dose, administered as eight 250 mg capsules at the rate of one 250 mg capsule each 30 minutes for 3.5 hr (“divided dosing” group). Group C received matching placebo capsules. All subjects received eight capsules of drug or placebo at time 0, and a capsule of drug or placebo every half-hour for 3.5 hr. All subjects were dosed after an overnight fast. […] Tmax is the time at which Cmax is achieved.

[2] = cited from earlier work
[3] = Visual Analogue Scale gastrointestinal side effects after duodenal or ileocecal dosing (Example 2); format: in vivo, human; conditions: for Incidence of Visual-Analogue-Scale score >1, abdominal cramping / Incidence of Visual-Analogue-Scale score >1, abdominal pain / Incidence of Visual-Analogue-Scale score >1, nausea / Incidence of Visual-Analogue-Scale score >1, regurgitation / Incidence of Visual-Analogue-Scale score >4, abdominal cramping / Incidence of Visual-Analogue-Scale score >4, abdominal pain / Incidence of Visual-Analogue-Scale score >4, nausea / Incidence of Visual-Analogue-Scale score >4, regurgitation: any time during 96 hour post-dose, subjects reporting/total; for Mean Cumulative Score (Visual Analogue Scale), abdominal cramping / Mean Cumulative Score (Visual Analogue Scale), abdominal pain / Mean Cumulative Score (Visual Analogue Scale), nausea / Mean Cumulative Score (Visual Analogue Scale), regurgitation: entire 96 hour post-dose period
Method: Healthy male subjects were divided into two groups. […] All subjects were dosed after an overnight fast.
Prior to dosing and each blood sampling time, each subject filled out a questionnaire, which consisted of a series of “Visual Analogue Scales” in which the subject was required to rate, on a scale of 0–10, the severity of certain potential side effects. The subjects were instructed that “0” indicated an absent effect and “10” indicated the worst possible effect. The subjects were instructed to interpolate between 0 and 10 for moderate side effects.
Analysis of side effect visual-analogue-scale data was carried out in two formats. In the first format (Table V), the analysis concentrated on the general incidence of side effects of a particular type. For each side effect type (e.g., abdominal pain), Table V reports the number of subjects who reported a score >1 at any time during the 96 hr post-dosing, and the number of subjects who reported a score >4 at any time during the 96 hr post-dosing. This analysis assumes that all scores >1 represent a real side effect occurrence, however mild or severe. A score >4 is presumed to reflect a moderate-to-severe side effect occurrence.
In the second format (Table VI), the analysis reflects the general severity and duration of side effects. For a particular side effect (e.g., Abdominal Pain) in a particular subject, all visual-analogue-scale scores (over the 96 hr post-dose period) were summed to give a “cumulative score” over the entire time period of evaluation. “Cumulative scores” for all members of a treatment group were summed, and divided by the number of subjects in the group, to give a Mean Cumulative Score. […] Table VI presents Mean Cumulative Scores for abdominal pain, nausea, regurgitation, and abdominal cramping.

[4] = Serum azithromycin pharmacokinetics after 2 hr intravenous infusion (Example 3); format: in vivo; conditions: male, human, 2 hr infusion
Method: Healthy male subjects were divided into four groups. Group A received a 2 hr intravenous infusion of a placebo solution (0 g azithromycin). Group B received a 2 hr intravenous infusion of a 1 g dose of azithromycin. Group C received a 2 hr intravenous infusion of a 2 g dose of azithromycin. Group D received a 2 hr intravenous infusion of a 4 g dose of azithromycin. […] All subjects were dosed after an overnight fast.
Tmax is the time at which Cmax is achieved.

[5] = 250 mg capsule per half-hr for 3.5 hr (2 g total), oral, fasted
[6] = 2 g single oral dose as eight 250 mg capsules, fasted
[7] = 2 g directly into the ileocecal region
[8] = 2 g solution directly into the duodenum, n 5
[9] = 2 g solution directly into the ileocecal region, n 6

Cmax [1, 5]: 1130 ng/mL
Tmax [1, 5]: 4.4 h
AUC(0-t) [1, 5]: 18900 ng·h/mL
Cmax ([1]; 2 g single oral dose as eight 250 mg capsules, fasted healthy male subjects): 1690 ng/mL
Tmax [1, 6]: 1.3 h
AUC(0-t) [1, 6]: 18800 ng·h/mL
AUC(0-inf) ([4]; 1.0 g total IV dose, n = 6): 23400 ng·h/mL
Cmax ([4]; 1.0 g total IV dose, n = 6): 3110 ng/mL
Tmax ([4]; 1.0 g total IV dose, n = 6): 1.9 h
AUC(0-inf) ([4]; 2.0 g total IV dose, n = 6): 45600 ng·h/mL
Cmax ([4]; 2.0 g total IV dose, n = 6): 6840 ng/mL
Tmax ([4]; 2.0 g total IV dose, n = 6): 1.8 h
AUC(0-inf) ([4]; 4.0 g total IV dose, n = 5): 82100 ng·h/mL
Cmax ([4]; 4.0 g total IV dose, n = 5): 9910 ng/mL
Tmax ([4]; 4.0 g total IV dose, n = 5): 1.1 h
Compound: CC[C@H]1OC(=O)[C@H](C)[C@@H](O[C@H]2C[C@@](C)(OC)[C@@H](O)[C@H](C)O2)[C@H](C)[C@@H](O[C@@H]2O[C@H](C)C[C@H](N(C)C)[C@H]2O)[C@](C)(O)C[C@@H](C)CN(C)[C@H](C)[C@@H](O)[C@]1(C)O [azithromycin, 9a-aza-9a-methyl-9-deoxo-9a-homoerythromycin A]
oral bioavailability of an azithromycin capsule ([2]; typical value): about 38%
oral bioavailability ([2]; used to convert intravenous to equivalent oral doses): 37%
Incidence of Visual-Analogue-Scale score >1, abdominal cramping ([3]; 2 g directly into the duodenum): 5/5
Incidence of Visual-Analogue-Scale score >1, abdominal pain ([3]; 2 g directly into the duodenum): 4/5
Incidence of Visual-Analogue-Scale score >1, nausea ([3]; 2 g directly into the duodenum): 2/5
Incidence of Visual-Analogue-Scale score >1, regurgitation ([3]; 2 g directly into the duodenum): 3/5
Incidence of Visual-Analogue-Scale score >4, abdominal cramping ([3]; 2 g directly into the duodenum): 0/5
Incidence of Visual-Analogue-Scale score >4, abdominal pain ([3]; 2 g directly into the duodenum): 0/5
Incidence of Visual-Analogue-Scale score >4, nausea ([3]; 2 g directly into the duodenum): 1/5
Incidence of Visual-Analogue-Scale score >4, regurgitation ([3]; 2 g directly into the duodenum): 0/5
Incidence of Visual-Analogue-Scale score >1, abdominal cramping [3, 7]: 2/6
Incidence of Visual-Analogue-Scale score >1, abdominal pain [3, 7]: 2/6
Incidence of Visual-Analogue-Scale score >1, nausea [3, 7]: 2/6
Incidence of Visual-Analogue-Scale score >1, regurgitation [3, 7]: 0/6
Incidence of Visual-Analogue-Scale score >4, abdominal cramping [3, 7]: 0/6
Incidence of Visual-Analogue-Scale score >4, abdominal pain [3, 7]: 0/6
Incidence of Visual-Analogue-Scale score >4, nausea [3, 7]: 0/6
Incidence of Visual-Analogue-Scale score >4, regurgitation [3, 7]: 0/6
Mean Cumulative Score (Visual Analogue Scale), abdominal cramping [3, 8]: 13.2
Mean Cumulative Score (Visual Analogue Scale), abdominal pain [3, 8]: 13.4
Mean Cumulative Score (Visual Analogue Scale), nausea [3, 8]: 11.6
Mean Cumulative Score (Visual Analogue Scale), regurgitation [3, 8]: 7.2
Mean Cumulative Score (Visual Analogue Scale), abdominal cramping [3, 9]: 3.3
Mean Cumulative Score (Visual Analogue Scale), abdominal pain [3, 9]: 2.7
Mean Cumulative Score (Visual Analogue Scale), nausea [3, 9]: 2.0
Mean Cumulative Score (Visual Analogue Scale), regurgitation [3, 9]: 0
